Assay results reported in the supplement of paper PMC10307832.

Assays:
Assay in all cases: relative viability (nuclei count vs DMSO), 5 days (fraction); higher = more cells survive
[1] = compound: CC(=O)c1c(C)c2cnc(Nc3ccc(N4CCNCC4)cn3)nc2n(C2CCCC2)c1=O [Palbociclib] + COc1cc2c(Oc3ccc(NC(=O)C4(C(=O)Nc5ccc(F)cc5)CC4)cc3F)ccnc2cc1OCCCN1CCOCC1 [Foretinib] (partner 0.25 µM)
Summary of the method: (§1)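 Lung cancer cell lines were pin-tool dosed in 1536-well plates on the day after seeding, with either a lone drug or a fixed anchor-drug dose plus five library-drug doses (not always all listed) in √10 steps. Nuclei were counted on 4× images after 5 days. Relative viability is the ratio of treated-well to vehicle-well nuclei counts, with each value a median of duplicate plates.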

[2] = compound: CC(=O)c1c(C)c2cnc(Nc3ccc(N4CCNCC4)cn3)nc2n(C2CCCC2)c1=O [Palbociclib] + O=C(CCCCCCC(=O)Nc1ccccc1)NO [Vorinostat] (partner 1 µM)
Summary of the method: as §1

[3] = compound: CC(=O)c1c(C)c2cnc(Nc3ccc(N4CCNCC4)cn3)nc2n(C2CCCC2)c1=O [Palbociclib] + N=C(N)NC(=N)NCCc1ccccc1 [Phenformin] (partner 250 µM)
Summary of the method: as §1

[4] = compound: CC(=O)c1c(C)c2cnc(Nc3ccc(N4CCNCC4)cn3)nc2n(C2CCCC2)c1=O [Palbociclib] + COc1cccc2cc(-c3nc([C@H]4CC[C@H](C(=O)O)CC4)n4ncnc(N)c34)[nH]c12 [OSI-027] (partner 0.5 µM)
Summary of the method: as §1

Row | Cell Line | relative viability ([1]; first compound 0.01 µM) | relative viability ([1]; first compound 0.1 µM) | relative viability ([1]; first compound 0.3162 µM) | relative viability ([1]; first compound 1 µM) | relative viability ([2]; first compound 0.01 µM) | relative viability ([2]; first compound 0.03162 µM) | relative viability ([2]; first compound 0.1 µM) | relative viability ([2]; first compound 0.3162 µM) | relative viability ([2]; first compound 1 µM) | relative viability ([3]; first compound 0.01 µM) | relative viability ([3]; first compound 0.1 µM) | relative viability ([3]; first compound 0.3162 µM) | relative viability ([3]; first compound 1 µM) | relative viability ([4]; first compound 0.01 µM) | relative viability ([4]; first compound 0.1 µM) | relative viability ([4]; first compound 0.3162 µM) | relative viability ([4]; first compound 1 µM) | relative viability ([1]; first compound 0.03162 µM) | relative viability ([3]; first compound 0.03162 µM) | relative viability ([4]; first compound 0.03162 µM)
1 | NCI-H1793 | 0.689 | 0.713 | 0.617 | 0.355 | 0.824 | 0.564 | 0.531 | 0.664 | 0.287 | 0.28 | 0.336 | 0.309 | 0.173 | 0.262 | 0.238 | 0.223 | 0.186 |  |  | 
2 | NCI-H1915 | 1.04 | 1.06 | 0.95 | 0.905 | 0.487 |  | 0.438 | 0.525 | 0.378 | 0.365 | 0.37 | 0.346 | 0.323 | 0.628 | 0.511 | 0.513 | 0.407 | 0.968 | 0.308 | 0.426
3 | NCI-H1944 | 0.915 | 0.768 | 0.756 | 0.577 | 0.579 | 0.456 | 0.399 | 0.475 | 0.343 | 0.206 | 0.182 | 0.174 | 0.165 | 0.461 | 0.335 | 0.325 | 0.213 | 0.807 | 0.172 | 0.336
4 | NCI-H1975 | 0.932 | 0.899 | 0.828 | 0.81 | 0.712 | 0.649 | 0.597 | 0.579 | 0.469 | 0.388 | 0.325 | 0.273 | 0.3 | 0.809 | 0.665 | 0.685 | 0.518 | 0.853 | 0.384 | 0.673
5 | NCI-H1993 | 0.815 | 0.671 | 0.627 | 0.52 | 0.8 | 0.539 | 0.625 | 0.644 | 0.65 | 0.467 | 0.464 | 0.445 | 0.556 | 0.533 | 0.513 | 0.524 | 0.509 | 0.633 | 0.474 | 0.505
6 | NCI-H2009 | 1.2 | 0.998 | 0.728 | 0.495 | 0.716 | 0.677 | 0.69 | 0.53 | 0.295 | 0.457 | 0.357 | 0.291 | 0.23 | 0.64 | 0.331 | 0.297 | 0.194 | 1 | 0.396 | 0.481
7 | NCI-H2023 | 0.929 | 0.556 | 0.474 | 0.322 | 0.721 | 0.281 | 0.54 | 0.515 | 0.303 | 0.405 | 0.321 | 0.319 | 0.218 | 0.358 | 0.298 | 0.265 | 0.154 | 0.523 | 0.381 | 0.335
8 | NCI-H2085 | 1.03 | 0.744 | 0.599 | 0.534 | 0.816 | 0.786 | 0.748 | 0.63 | 0.383 | 0.667 | 0.616 | 0.592 | 0.399 | 0.658 | 0.547 | 0.574 | 0.369 | 0.875 | 0.555 | 0.55
9 | NCI-H2087 | 0.951 | 0.838 | 0.631 | 0.47 | 0.365 | 0.53 | 0.602 | 0.379 | 0.188 | 0.449 | 0.291 | 0.229 | 0.189 | 0.433 | 0.361 | 0.278 | 0.25 |  |  | 
10 | NCI-H2126 | 1.28 | 0.904 | 0.78 | 0.603 | 0.718 | 0.381 | 0.535 | 0.545 | 0.325 | 0.494 | 0.381 | 0.413 | 0.392 | 0.694 | 0.443 | 0.441 | 0.378 | 0.93 | 0.418 | 0.53
11 | NCI-H2170 | 1.03 | 0.955 | 0.889 | 0.852 | 0.841 | 0.515 | 0.694 | 0.675 | 0.447 | 0.418 | 0.351 | 0.34 | 0.304 | 0.72 | 0.61 | 0.638 | 0.407 | 0.969 | 0.352 | 0.642
12 | NCI-H2228 | 0.773 | 0.867 | 0.787 | 0.781 | 0.566 | 0.673 | 0.649 | 0.717 | 0.398 | 0.322 | 0.293 | 0.258 | 0.307 | 0.529 | 0.389 | 0.492 | 0.48 | 0.782 | 0.287 | 0.373
13 | NCI-H2347 | 0.917 | 0.844 |  | 0.546 | 0.558 | 0.603 | 0.424 | 0.487 | 0.4 | 0.612 | 0.285 | 0.26 | 0.182 | 0.467 | 0.402 | 0.379 | 0.308 |  |  | 
14 | NCI-H2405 | 1.02 | 0.884 | 0.822 | 0.675 | 1.01 | 1 | 0.82 | 0.837 | 0.631 | 0.387 | 0.327 | 0.36 | 0.317 | 0.586 | 0.492 | 0.483 | 0.396 | 0.972 | 0.344 | 0.487
15 | NCI-H3122 | 0.854 | 0.892 | 0.7 | 0.553 | 0.931 | 0.632 | 0.879 | 0.703 | 0.613 | 0.353 | 0.279 | 0.282 | 0.167 | 0.82 | 0.346 | 0.172 | 0.169 | 0.936 | 0.323 | 0.602
16 | PC-3 [JPC-3] | 1.1 | 0.884 | 0.855 | 0.64 | 0.817 | 0.673 | 0.699 | 0.507 | 0.381 | 0.514 | 0.459 | 0.445 | 0.378 | 0.728 | 0.561 | 0.483 | 0.349 | 0.955 | 0.464 | 0.599
17 | PC-14 | 0.944 | 0.819 | 0.868 | 0.733 | 0.804 | 0.629 | 0.576 | 0.673 | 0.416 | 0.817 | 0.549 | 0.528 | 0.282 | 0.964 | 0.572 | 0.603 | 0.362 | 0.865 |  | 0.515
